This passage reports logP results from ChEMBL document CHEMBL1134496, “An optimized protein kinase C activating diacylglycerol combining high binding affinity (Ki) with reduced lipophilicity (log P)” (J Med Chem, 2001).

For orientation: logP means a log measure of how a compound divides between an organic and an aqueous phase. A high value points to higher lipophilicity.

This series can be described thus: Partition coefficient (logP). The format is physicochemical. To be noted: octanol/water.

`CC(C)CC(=O)OC[C@H](CO)OC(=O)C=C(C(C)C)C(C)C` showed a logP of 3.89.

The compound `CC(C)CC(=O)OC[C@H](CO)OC(=O)CC(C)C` returned a logP of 2.16.

Turning to `CC(C)C(=CC(=O)OC[C@H](CO)OC(=O)C=C(C(C)C)C(C)C)C(C)C`, the logP was found to be 5.62.

Regarding `CC(C)C(=CC(=O)O[C@@H](CO)COC(=O)CC(C(C)C)C(C)C)C(C)C`, the logP is 5.71.

In turn, `CC(C)CC(=O)OC[C@H](CO)OC(=O)CC(C(C)C)C(C)C` displayed a logP of 3.97.

As for `CC(C)=CC(=O)OC[C@H](CO)OC(=O)C=C(C)C`, the logP came out at 1.99.

As to `CC(C)=CC(=O)O[C@@H](CO)COC(=O)CC(C(C)C)C(C)C`, the lipophilicity (logP) turned out to be 3.88.

Compound `CCCCCCCC/C=C/CCCCCCCC(=O)OC[C@H](CO)OC(C)=O` showed a logP of 7.

As to `CCCC(=O)O[C@@H]1[C@@H](C)[C@@]2(O)[C@@H](C=C(CO)C[C@]3(O)C(=O)C(C)=C[C@@H]23)[C@@H]2C(C)(C)[C@]12OC(=O)CCC`, the log partition coefficient (logP) came to 3.4.

`CC(C)=CC(=O)OC[C@H](CO)OC(=O)CC(C(C)C)C(C)C` registered a logP of 3.88.

Consider `CC(C)CC(=O)O[C@@H](CO)COC(=O)C=C(C(C)C)C(C)C`, for which the log partition coefficient (logP) is 3.89.

In the case of `CC(C)=CC(=O)O[C@@H](CO)COC(=O)C=C(C(C)C)C(C)C`, the logP was found to be 3.8.

In turn, `CC(C)=CC(=O)OC[C@H](CO)OC(=O)C=C(C(C)C)C(C)C` displayed a log partition coefficient (logP) of 3.8.

In the case of `CC(C)CC(=O)O[C@@H](CO)COC(=O)CC(C(C)C)C(C)C`, the log partition coefficient (logP) came out at 3.97.

For the compound `CC(C)C(=CC(=O)OC[C@H](CO)OC(=O)CC(C(C)C)C(C)C)C(C)C`, the logP came out at 5.71.

Consider `CC(C)=CC(=O)O[C@@H](CO)COC(=O)CC(C)C`, for which the logP stood at 2.07.

Compound `CC(=O)O[C@@]12C[C@@H](C)[C@@]3(O)[C@@H](C=C(CO)C[C@]4(O)C(=O)C(C)=C[C@@H]34)[C@@H]1C2(C)C` [PROSTRATIN] registered a logP of 1.9.

`CC(C)C(CC(=O)OC[C@H](CO)OC(=O)CC(C(C)C)C(C)C)C(C)C`: the logP was 5.79.

Compound `CCCCCCCC(=O)OC[C@H](CO)OC(=O)CCCCCCC` registered a logP of 5.3.

In the case of `CC(C)=CC(=O)OC[C@H](CO)OC(=O)CC(C)C`, the log partition coefficient (logP) worked out at 2.07.
